Here are results for 15 molecules from patent US20210053957A1, “HERBICIDAL COMPOUNDS” (SYNGENTA PARTICIPATIONS AG, priority 2018, published 2021).

Molecules are shown by their SMILES.

What all share (test): Post-emergence efficacy, glasshouse spray test
What all share (format): in vivo

In experiment [1] the test system is Echinochloa crus-galli (ECHCG). The following applies: Echinochloa crus-galli, post-emergence, 312 h; Application Rate 500 g/Ha; evaluated after 13 days; read-out: Control of weed species after post-emergence application, ECHCG (100=total damage to plant; 0=no damage to plant). Summed up:
(§1)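 Each value is a visual injury score (0 none, 100 total) read 13 days post-application. Plants were 14 days old at spraying and kept at 24/16° C, 14 h light.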

Experiment [2] has as its system Eleusine indica (ELEIN). The following applies: Eleusine indica, post-emergence, 312 h; Application Rate 500 g/Ha; evaluated after 13 days; read-out: Control of weed species after post-emergence application, ELEIN (100=total damage to plant; 0=no damage to plant). Summed up:
as §1

The test system of experiment [3] is Ipomoea hederacea (IPOHE). The settings on record: Ipomoea hederacea, post-emergence, 312 h; Application Rate 500 g/Ha; evaluated after 13 days; read-out: Control of weed species after post-emergence application, IPOHE (100=total damage to plant; 0=no damage to plant). Summed up: as §1
The subject of experiment [4] is Setaia fabei (SETFA). The following applies: Setaria faberi, post-emergence, 312 h; Application Rate 500 g/Ha; evaluated after 13 days; read-out: Control of weed species after post-emergence application, SETFA (100=total damage to plant; 0=no damage to plant). Summed up: as §1
Experiment [5] has as its system Euphorbia heterophylla (EPHHL). The following applies: Euphorbia heterophylla, post-emergence, 312 h; Application Rate 500 g/Ha; evaluated after 13 days; read-out: Control of weed species after post-emergence application, EPHHL (100=total damage to plant; 0=no damage to plant). Summed up:
as §1

The subject of experiment [6] is Digitaria sanguinalis (DIGSA). The following applies: Digitaria sanguinalis, post-emergence, 312 h; Application Rate 500 g/Ha; evaluated after 13 days; read-out: Control of weed species after post-emergence application, DIGSA (100=total damage to plant; 0=no damage to plant). Summed up: as §1
Experiment [7] concerns Amaranthus palmeri (AMAPA). The settings on record: Amaranthus palmeri, post-emergence, 312 h; Application Rate 500 g/Ha; evaluated after 13 days; read-out: Control of weed species after post-emergence application, AMAPA (100=total damage to plant; 0=no damage to plant). In short, it runs like this: as §1
Experiment [8] has as its system Chenopodium album (CHEAL). The following applies: Chenopodium album, post-emergence, 312 h; Application Rate 500 g/Ha; evaluated after 13 days; read-out: Control of weed species after post-emergence application, CHEAL (100=total damage to plant; 0=no damage to plant). Summed up:
as §1

Experiment [9] relates to Lolium perenne (LOLPE). The settings on record: Lolium perenne, post-emergence, 312 h; Application Rate 500 g/Ha; evaluated after 13 days; read-out: Control of weed species after post-emergence application, LOLPE (100=total damage to plant; 0=no damage to plant). In short, it runs like this: as §1

With `CNC(=O)c1coc(-c2cc[n+](CCC(=O)O)nc2)n1` [Compound A127], the pest or weed control at 500 g/ha is 80% in experiment [1]; 70% in experiment [2]; 60% in experiment [3]; 70% in [4]; 70% in experiment [5]; 90% in [6]. Moreover, the pest or weed control at 500 g/ha was determined as 100% in [7], 100% in [8] and 20% in experiment [9].
Turning to `O=C(O)CC[n+]1ccc(-c2ccsn2)cn1` [Compound A97], the pest or weed control at 500 g/ha in experiment [1] is 60%; in experiment [2], 70%; in [3], 20%; in experiment [4], 40%; in [5] it was 50%; in [6], 50%. Moreover, the pest or weed control at 500 g/ha in experiment [7] was 100%; in experiment [8] it was 80%; in [9], 30%.
As for `COC(=O)c1cccc(C[n+]2ccc(-c3ncco3)cn2)c1` [Compound A92], the pest or weed control at 500 g/ha stood at 0% in experiment [1]; 10% in experiment [2]; 10% in [3]; 0% in experiment [4]; 20% in experiment [5]; 20% in experiment [6]. The pest or weed control at 500 g/ha in experiment [7] worked out at 10%; in experiment [8], 10%; in experiment [9], 0%.
Turning to `O=C(O)CC[n+]1ccc(-c2ncco2)cn1` [Compound A32], the pest or weed control at 500 g/ha in [1] amounted to 90%; in experiment [2], 90%; in [3] it was 60%; in [4] it was 80%; in experiment [5], 80%; in experiment [6], 90%. The values for the pest or weed control at 500 g/ha in experiment [7], in experiment [8] and in [9] were 80%, 90% and 40%, respectively.
In the case of `Cn1cnc(-c2cc[n+](CCCS(=O)(=O)[O-])nc2)n1` [Compound A117], the pest or weed control at 500 g/ha is 70% in [1]; 20% in [2]; 30% in experiment [3]; 90% in [4]; 70% in [5]; 80% in experiment [6]. The pest or weed control at 500 g/ha in experiment [7] came to 40%; in [8], 20%; in experiment [9] it was 40%.
Consider `O=C(O)CC[n+]1ccc(-c2nccs2)cn1` [Compound A111], for which the pest or weed control at 500 g/ha came to 100% in [1]; 100% in [2]; 70% in experiment [3]; 100% in experiment [4]; 90% in experiment [5]; 100% in experiment [6]. Also, the pest or weed control at 500 g/ha in [7], in experiment [8] and in [9] was 90% each time.
In the case of `O=S(=O)([O-])OCC[n+]1ccc(-c2nccs2)cn1` [Compound A113], the pest or weed control at 500 g/ha in experiment [1] is 70%; in [2], 70%; in experiment [3] it was 50%; in experiment [4], 70%; in [5] it was 70%; in experiment [6] it was 70%. Also, the pest or weed control at 500 g/ha in [7] came out at 100%; in experiment [8], 60%; in [9], 60%.
Consider `O=C(O)C[n+]1ccc(-c2ncco2)cn1` [Compound A71], for which the pest or weed control at 500 g/ha in experiment [1] worked out at 100%; in experiment [2], 100%; in [3], 60%; in [4] it was 90%; in experiment [5] it was 90%; in experiment [6], 90%. The pest or weed control at 500 g/ha is 100% in [7], 90% in experiment [8] and 80% in experiment [9].
As for `Cn1nnnc1-c1cc[n+](CCS(=O)(=O)O)nc1` [Compound A12], the pest or weed control at 500 g/ha came out at 30% in experiment [1]; 30% in experiment [2]; 20% in experiment [3]; 40% in experiment [4]; 20% in experiment [5]; 60% in [6]. In addition, the pest or weed control at 500 g/ha was 60% in experiment [7], 30% in [8] and 70% in experiment [9].
In the case of `O=S(=O)([O-])CC[n+]1ccc(-c2nc(Cl)cs2)cn1` [Compound A25], the pest or weed control at 500 g/ha in [1] is 30%; in experiment [2], 40%; in experiment [3], 40%; in experiment [4], 40%; in experiment [5], 80%; in experiment [6], 40%. Further, the pest or weed control at 500 g/ha came out at 80% in experiment [7], 70% in experiment [8] and 20% in experiment [9].
As for `O=C(O)C[n+]1ccc(-c2nccs2)cn1` [Compound A123], the pest or weed control at 500 g/ha in experiment [1] is 10%; in experiment [2] it was 20%; in [3] it was 10%; in [4] it was 10%; in experiment [5], 30%; in experiment [6], 20%. In addition, the pest or weed control at 500 g/ha stood at 0% in experiment [7], 0% in experiment [8] and 10% in experiment [9].
As for `O=C(O)CCC[n+]1ccc(-c2nccs2)cn1` [Compound A115], the pest or weed control at 500 g/ha was 90% in experiment [1]; 100% in experiment [2]; 20% in experiment [3]; 100% in experiment [4]; 100% in [5]; 90% in experiment [6]. The figures for the pest or weed control at 500 g/ha in experiment [7], in experiment [8] and in [9] were 100%, 70% and 60%, respectively.
With `CS(=O)(=O)[N-]C(=O)C[n+]1ccc(-c2ncco2)cn1` [Compound A72], the pest or weed control at 500 g/ha worked out at 40% in experiment [1]; 80% in [2]; 70% in experiment [3]; 60% in experiment [4]; 70% in experiment [5]; 60% in [6]. Further, the pest or weed control at 500 g/ha in [7] was 90%; in experiment [8], 70%; in experiment [9], 40%.
For `O=C(O)CC[n+]1ccc(-c2cnns2)cn1` [Compound A138], the pest or weed control at 500 g/ha came to 40% in experiment [1]; 70% in experiment [2]; 70% in [3]; 30% in [4]; 100% in experiment [5]; 60% in experiment [6]. In addition, the pest or weed control at 500 g/ha in experiment [7] came out at 90%; in experiment [8], 40%; in experiment [9], 0%.
In the case of `O=S(=O)([O-])CC[n+]1ccc(-c2ncn[nH]2)cn1` [Compound A38], the pest or weed control at 500 g/ha in experiment [1] turned out to be 10%; in experiment [2], 0%; in experiment [3], 20%; in experiment [4], 10%; in [5], 20%; in experiment [6], 20%. Besides, the pest or weed control at 500 g/ha in experiment [7] stood at 20%; in [8], 30%; in [9], 10%.
